Test results published in patent publication US20210386754A1, “COMPOSITIONS AND METHODS FOR TREATING ATHEROSCLEROTIC VASCULAR DISEASE” (AUGUSTA UNIVERSITY RESEARCH INSTITUTE, INC., priority 2020, published 2021).
“Also recorded” adds a separate entry of the source.

Columns and labels:
[1] = tested on: hypercholesterolemic mice (PCSK9-AAV-mediated LDLR knockdown); experiment: Atherosclerosis model: PCSK9-AAV, partial LCA ligation, Western diet; type: in vivo, mouse; settings: for inhibition of atherosclerotic lesion area (ORO positive area, LCA): continuous infusion via subcutaneous osmotic pump
Text: Mice were given a single injection of AAV-PCSK9 (1×1011 VG) and fed a Western diet (Envigo, TD.88137, Indianapolis, Ind.). One week after AAV-PCSK9 injection, mice underwent partial carotid ligation surgery as previously described (67) and Western diet was continued for another 3 weeks. In separate experiments, mice were given a single injection of AAV-PCSK9 (1×1011 VG) and fed a Western diet for 16 weeks. Mice were anesthetized (isoflurane inhalation, 3%) and exsanguinated. Blood was collected from left ventricle using a heparinized syringe fitted with a 21 G needle. Aortic arch and carotid arteries were collected, and gross macroscopic images were acquired. For molecular histology studies, carotids and aortic arch were fixed in 4% paraformaldehyde (PFA), embedded in OCT compound and stored at −80° C. until use.
ORO staining: Atherosclerosis development in carotid arteries and whole aorta were studied initially by gross imaging followed by Oil Red O (ORO) staining and plaque quantification. Briefly, the entire aorta was isolated, cleaned of peri-adventitial fat, fixed and imaged on the surface of black silicone-coated dissection dishes. Left carotid arteries were embedded in OCT and 10 μm thick cross-sections were prepared. The arteries were divided into 3 regions based on their distance from the aortic arch: proximal (0-400 μm), middle (2,000-2,400 μm) and distal (4,000-4,400 μm). Frozen sections and whole aortas were then stained with ORO solution (2%) and images were taken using light microscope equipped with a camera under 20× and 1.6× objective lens. The total area, lumen area and ORO positive area were measured for six sections/anatomical position per mouse using Image J software. The ratio of ORO positive area to arterial area is represented as plaque area. Plasma total cholesterol concentrations were determined by the Amplex™ Red Cholesterol Assay Kit (ThermoFisher, Rockford, Ill.). Plasma lipid profiles were obtained by column fractionation and measurements of fraction cholesterol content.
Hematoxylin and Eosin (H&E) or Masson's trichrome staining: Frozen sections were also used for Hematoxylin and Eosin (H&E) or Masson's trichrome staining following standard procedures to evaluate the lesion size and collagen content, respectively.
Orcein and Martius Scarlet Blue (OMSB) staining: OMSB was used for qualitative and quantitative analysis of atherosclerotic plaques as previously described. Briefly, left carotid arteries were dissected out, fixed in 4% buffered paraformaldehyde (pH=7.4) for at least 48 hr, and then routinely processed and embedded in paraffin (tissue processor TP1020; Leica, Wetzlar, Germany). Cross sections were cut every 5 m along the artery (starting from the proximal end) and mounted serially on silanized slides. Sections were stained and mounted automatically using Leica ST5010 Autostainer XL combined with Leica CV5030 Glass Coverslip. Deparaffinized sections through xylene and ethanol, and rehydrate to water. Postfix sections in Bouin's fixative at 56° C. for 1 hour, then rinse for 10 min in tap water to remove traces of picric acid. Stain with orcein for 20 min at 56° C. Differentiate in acidic alcohol for 2 min and then transfer to 96% ethanol for 30 s. Stain with martius yellow for 3 min and rinse in distilled water (2×2 min). Stain with crystal scarlet for 10 min. Differentiate with phosphotungstic acid 2 min and transfer to distilled water (for about 10 s). Stain with methyl blue 5 min. Rinse in acetic acid water 3 min, dehydrate through ethanol and carbol-xylene, clear in xylene, and mount in DPX or other resin. Staining of collagen with picrosirius red. The sections were examined and digital images of stained arteries were recorded using Olympus dotSlide system (Olympus, Tokyo, Japan). Segmentation algorithm allowed to distinguish vessel wall area, lumen area, plaque area, and area of the plaque occupied by collagen. The results were presented as areas of identified components in μm2. […]

Wild type BMDM = experiment: Cytokine secretion, LEGENDplex bead-based immunoassay; type: cell-based, mouse
Description: Wild type BMDM were incubated with vehicle or treated with EIPA (25 μM, 24 hours). Cytokine secretion into the media was quantified using the LEGENDplex™ (mouse inflammation panel) bead-based immunoassay according to the manufacturer's instructions (BioLegend, San Diego, Calif., USA). Data were acquired using four-color BD FACSCalibur (BD Biosciences, San Jose, Calif., USA) and analyzed using the LEGENDplex Data Analysis software (BioLegend).

RAW 264.7 macrophages = experiment: Clathrin-mediated endocytosis of FITC-transferrin; type: cell-based; settings: EIPA 25 μM, 1 hr; FITC-transferrin 1 μg/ml
Description: Clathrin- and caveolin-mediated endocytosis: Receptor-mediated uptake of FITC-transferrin (1 μg/mL; clathrin-mediated endocytosis) and Alexa Fluor 488-albumin ([…]; caveolin-mediated endocytosis) was investigated in RAW 264.7 macrophages following their incubation with ±EIPA (25 μM; 1 hour pre-incubation). Fluorescence intensity was measured using the FL1 channel for FITC and Alexa Fluor 488 (Ex: 488 nm, Em: 530 nm).

[2] = tested on: human aortic endothelial cells; experiment: qRT-PCR of SR-B1 mRNA expression; type: cell-based; settings: EIPA 25 μM, 24 hr
[3] = EIPA vs vehicle, WT and CD36-/-/SR-A-/- mice
[4] = EIPA vs vehicle, WT and CD36-/-/SR-A-/- mice, LCA

## CCN(c1nc(N)c(C(=O)N=C(N)N)nc1Cl)C(C)C [EIPA, 5-(N-ethyl-N-isopropyl)amiloride]
[1]; [3]
  blood pressure (systolic): not different
  body weight: not different
[1]; [4]
  CD68+ macrophage staining: significantly decreased
  Collagen content (Masson's trichrome): significantly decreased
  atherosclerotic lesion area (H&E): significantly decreased
[1]; female WT mice, PCSK9-AAV (LDLR-deficient), Western diet 4 weeks, EIPA via subcutaneously implanted minipump
  atherosclerosis (plaque area, OMSB, LCA): inhibited atherosclerosis; also recorded: attenuates
[1]; male CD36-/-/SR-A-/- mice, Western diet 4 weeks
  inhibition of atherosclerotic lesion area (ORO positive area, LCA): ~80%
[1]; male WT mice, Western diet 4 weeks
  inhibition of atherosclerotic lesion area (ORO positive area, LCA): ~80%
[1]; wild-type and SR knockout mice
  atherosclerosis development: reduces
Wild type BMDM; EIPA 25 μM, 24 hours, n = 3, vehicle 2.40 ± 0.58
  IL-6 secretion: 1.82 ± 0.40 pg/mL
Wild type BMDM; EIPA 25 μM, 24 hours, n = 3, vehicle 7.83 ± 1.89
  TNFα secretion: 4.76 ± 0.77 pg/mL
Wild type BMDM; EIPA 25 μM, 24 hours, n = 3, vehicle 38.04 ± 6.03
  MCP-1 secretion: 22.19 ± 2.30 pg/mL
Wild type BMDM; in the absence of exogenous lipids
  macrophage secretion of TNF-α, MCP-1, and IL-6: does not inhibit
RAW 264.7 macrophages
  clathrin-mediated transferrin endocytosis: without inhibiting; also recorded: does not inhibit
[2]
  SR-B1 mRNA levels: does not increase
